Measured values reported in patent US11401256B2, “Dihydroquinolinones for medical treatment” (C4 Therapeutics, Inc., priority 2017, dated 2022).

The compounds below were run against h-Cereblon_DDB1 (hCereblon(M1-L442)_hDDB1(M1-H1140)) (Homo sapiens (Human), UniProt Q96SW2) (assay: Fluorescence direct binding (tryptophan fluorescence titration)). Details: 20° C., excitation 280 nm, emission 340 nm, 1:1 protein-ligand complex; read-out: Fluorescence h-Cereblon_DDB1 Mean Kd_EQ.
Sequence of h-Cereblon_DDB1 (hCereblon(M1-L442)_hDDB1(M1-H1140)) (Q96SW2 whole entry): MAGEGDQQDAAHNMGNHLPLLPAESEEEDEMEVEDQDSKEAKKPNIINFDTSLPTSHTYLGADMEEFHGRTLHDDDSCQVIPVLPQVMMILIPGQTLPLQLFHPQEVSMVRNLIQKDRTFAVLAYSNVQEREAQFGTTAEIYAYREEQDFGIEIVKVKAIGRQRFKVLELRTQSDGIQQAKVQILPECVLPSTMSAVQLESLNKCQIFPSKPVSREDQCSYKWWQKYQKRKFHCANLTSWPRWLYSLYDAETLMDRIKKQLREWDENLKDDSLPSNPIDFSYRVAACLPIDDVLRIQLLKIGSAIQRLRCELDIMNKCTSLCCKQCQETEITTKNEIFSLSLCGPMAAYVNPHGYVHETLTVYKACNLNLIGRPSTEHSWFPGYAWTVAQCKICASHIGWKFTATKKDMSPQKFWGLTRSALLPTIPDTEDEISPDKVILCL
Sequence of h-Cereblon_DDB1 (hCereblon(M1-L442)_hDDB1(M1-H1140)) (Q16531 whole entry partner): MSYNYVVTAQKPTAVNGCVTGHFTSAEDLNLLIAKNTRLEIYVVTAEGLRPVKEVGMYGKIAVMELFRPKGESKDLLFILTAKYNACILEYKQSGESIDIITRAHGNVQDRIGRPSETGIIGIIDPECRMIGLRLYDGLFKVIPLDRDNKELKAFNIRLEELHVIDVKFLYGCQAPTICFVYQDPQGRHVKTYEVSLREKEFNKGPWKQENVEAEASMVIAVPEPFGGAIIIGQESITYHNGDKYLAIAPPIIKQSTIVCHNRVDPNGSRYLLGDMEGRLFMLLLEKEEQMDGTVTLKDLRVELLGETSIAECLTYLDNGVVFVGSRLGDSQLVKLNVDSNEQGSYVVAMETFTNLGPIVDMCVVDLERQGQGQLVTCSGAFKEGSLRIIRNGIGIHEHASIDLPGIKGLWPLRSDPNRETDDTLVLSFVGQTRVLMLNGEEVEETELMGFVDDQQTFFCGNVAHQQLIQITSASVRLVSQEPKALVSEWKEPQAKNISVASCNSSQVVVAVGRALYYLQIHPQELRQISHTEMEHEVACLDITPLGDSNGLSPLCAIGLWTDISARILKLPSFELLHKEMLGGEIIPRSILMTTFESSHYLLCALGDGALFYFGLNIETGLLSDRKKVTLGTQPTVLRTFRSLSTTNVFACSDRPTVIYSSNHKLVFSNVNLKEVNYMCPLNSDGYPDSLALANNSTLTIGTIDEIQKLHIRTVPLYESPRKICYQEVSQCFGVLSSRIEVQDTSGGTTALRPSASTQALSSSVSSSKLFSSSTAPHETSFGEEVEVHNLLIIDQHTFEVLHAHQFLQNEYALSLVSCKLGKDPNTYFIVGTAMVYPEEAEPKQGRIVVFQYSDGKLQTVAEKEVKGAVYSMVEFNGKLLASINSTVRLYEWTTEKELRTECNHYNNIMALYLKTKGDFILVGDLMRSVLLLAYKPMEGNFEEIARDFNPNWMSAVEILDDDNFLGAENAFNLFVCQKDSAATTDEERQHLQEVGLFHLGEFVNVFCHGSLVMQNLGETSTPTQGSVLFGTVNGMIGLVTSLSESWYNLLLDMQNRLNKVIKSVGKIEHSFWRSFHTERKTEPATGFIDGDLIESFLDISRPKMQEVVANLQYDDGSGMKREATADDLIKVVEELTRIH
Protocol: Determination of the affinities of compounds to protein containing one or more tryptophan is measurable by monitoring the fluorescence emission in direct mode. The measurements depending on the protein available amounts are performed either manually in a cuvette on ISS-PC1 photon counting spectrofluorometer or automatically in well plates on a fluorescence plate reader device. Fluorescence titrations are performed at 20° C. in the chosen binding assay buffer by using a defined constant protein concentration against ligand concentration variations. Small aliquots of known ligand concentration solubilized in DMSO were added and the fluorescence, excited at 280 nm, was recorded at 340 nm. The fluorescence intensity was corrected for protein dilution and for the filter effect (Birdsall et al.^37). The corrected fluorescence intensity was plotted against the ligand concentration and fitted using a four-parameter sigmoidal function, from which the equilibrium dissociation constant Kd was computed using the law of mass action assuming a 1:1 protein-ligand complex (Eftink, 1997^38).
Process • 1) Optimization of measurement parameters to minimize protein consumption and to minimize the dilution effect and the DMSO content • 2) Titration measurements of the protein against ligand by at least 12 titration steps to obtain a good s-curve fit • 3) Repeat the same titration measurements with the ligand alone to enable correction • 4) Check the stability of the protein once by titration against DMSO alone • 5) Determination of the molar extinction coefficients of the ligand at 280 and 340 nm with help of a UV-spectrophotometer • 6) Use Excel template for the correction of the measured raw data • 7) Use GraphPad Prism software for the quadratic binding fit and the Kd evaluation.
For `COC(=O)c1ccc(Nc2ccc3c(c2)CCC(=O)N3)cc1` [Example 19, Methyl 4-((2-oxo-1,2,3,4-tetrahydroquinolin-6-yl)amino)benzoate], the Kd was 30 nM.
Compound `O=C1CCc2cc(NC(=O)C3CCCc4ccccc43)cnc2N1` (racemic) [Example 21, (RS)—N-(7-Oxo-5,6,7,8-tetrahydro-1,8-naphthyridin-3-yl)-1,2,3,4-tetrahydronaphthalene-1-carboxamide] has a Kd of 4 nM.
Work on `O=C1CCc2cc(C(=O)N3CCCc4ccccc43)cnc2N1` [Example 60, 6-(3,4-Dihydro-2H-quinoline-1-carbonyl)-3,4-dihydro-1H-1,8-naphthyridin-2-one] yielded a Kd of 1 nM.
`CNC(=O)c1ccc2c(c1)nc(Cc1ccc(C(F)(F)F)cc1OC)n2-c1ccc2c(c1)CCC(=O)N2` [Example 47, 2-[[2-Methoxy-4-(trifluoromethyl)phenyl]methyl]-N-methyl-1-(2-oxo-3,4-dihydro-1H-quinolin-6-yl)benzimidazole-5-carboxamide] showed a Kd of 17 nM.
Work on `CNC(=O)c1ccc2c(c1)nc(-c1ccnc(OC)c1)n2-c1cnc2c(c1)CCC(=O)N2` [Example 29, 2-(2-Methoxy-4-pyridyl)-N-methyl-1-(7-oxo-6,8-dihydro-5H-1,8-naphthyridin-3-yl)benzimidazole-5-carboxamide] yielded a Kd of 35 nM.
In the case of `Cc1sc2c(c1C)C(c1ccc(Cl)cc1)=N[C@@H](CC(=O)NCCCCCNC(=O)c1ccc3c(c1)nc(-c1cc(-c4cncn4C)nc4ccccc14)n3-c1ccc3c(c1)CCC(=O)N3)c1nnc(C)n1-2` [Example B, N-(5-(2-((6S)-4-(4-Chlorophenyl)-2,3,9-trimethyl-6H-thieno[3,2-f][1,2,4]triazolo[4,3-a][1,4]diazepin-6-yl)acetamido)pentyl)-2-(2-(1-methyl-1H-imidazol-5-yl)quinolin-4-yl)-1-(2-oxo-1,2,3,4-tetrahydroquinolin-6-yl)-1H-benzo[d]imidazole-5-carboxamide], the Kd is reported as 258 nM.
`CNC(=O)c1ccc2c(c1)nc(-c1cc(OC)ccc1F)n2-c1ccc2c(c1)CCC(=O)N2` [Example 35, 2-(2-Fluoro-5-methoxy-phenyl)-N-methyl-1-(2-oxo-3,4-dihydro-1H-quinolin-6-yl)benzimidazole-5-carboxamide] gave a Kd of 14 nM.
For `COC(=O)c1ccc2c(c1)nc(-c1ccnc(OC)c1)n2-c1ccc2c(c1)CCC(=O)N2` [Example 22, Methyl 2-(2-methoxypyridin-4-yl)-1-(2-oxo-1,2,3,4-tetrahydroquinolin-6-yl)-1H-benzo[d]imidazole-5-carboxylate], the Kd was 4 nM.
`O=C1CCc2cc(-n3ccnc3)cnc2N1` [Example 9, 6-(1H-Imidazol-1-yl)-3,4-dihydro-1,8-naphthyridin-2(1H)-one] showed a Kd of 16 nM.
Compound `CNC(=O)c1ccc2c(c1)nc(-c1ccc(OC)nc1)n2-c1ccc2c(c1)CCC(=O)N2` [Example 24, 2-(6-Methoxypyridin-3-yl)-N-methyl-1-(2-oxo-1,2,3,4-tetrahydroquinolin-6-yl)-1H-benzo[d]imidazole-5-carboxamide] has a Kd of 12 nM.
`CNC(=O)c1ccc2c(c1)nc(C(C)C)n2-c1ccc2c(c1)CNC(=O)N2` [Example 62, 2-Isopropyl-N-methyl-1-(2-oxo-1,2,3,4-tetrahydroquinazolin-6-yl)-1H-benzo[d]imidazole-5-carboxamide] gave a Kd of 120 nM.
Compound `CNC(=O)c1ccc2c(c1)nc(-c1cc(OC)ccc1C)n2-c1ccc2c(c1)CCC(=O)N2` [Example 33, 2-(5-Methoxy-2-methyl-phenyl)-N-methyl-1-(2-oxo-3,4-dihydro-1H-quinolin-6-yl)benzimidazole-5-carboxamide] has a Kd of 45 nM.
`CNC(=O)c1ccc2c(c1)nc(-c1cc(-c3cncn3C)nc3ccccc13)n2-c1ccc2c(c1)CCC(=O)N2` [Example 2, N-Methyl-2-[2-(3-methylimidazol-4-yl)-4-quinolyl]-1-(2-oxo-3,4-dihydro-1H-quinolin-6-yl)benzimidazole-5-carboxamide] gave a Kd of 40 nM.
`CNC(=O)c1ccc2c(c1)nc(-c1cc(OC)ncc1F)n2-c1ccc2c(c1)CCC(=O)N2` [Example 44, 2-(5-Fluoro-2-methoxy-4-pyridyl)-N-methyl-1-(2-oxo-3,4-dihydro-1H-quinolin-6-yl)benzimidazole-5-carboxamide] was tested, and the Kd was 10 nM.
For `Cc1sc2c(c1C)C(c1ccc(Cl)cc1)=N[C@@H](CC(=O)NCCOCCOCCNC(=O)c1ccc3c(c1)nc(-c1cc(-c4cncn4C)nc4ccccc14)n3-c1ccc3c(c1)CCC(=O)N3)c1nnc(C)n1-2` [Example C, N-(2-(2-(2-(2-((6S)-4-(4-Chlorophenyl)-2,3,9-trimethyl-6H-thieno[3,2-f][1,2,4]triazolo[4,3-a][1,4]diazepin-6-yl)acetamido)ethoxy)ethoxy)ethyl)-2-(2-(1-methyl-1H-imidazol-5-yl)quinolin-4-yl)-1-(2-oxo-1,2,3,4-tetrahydroquinolin-6-yl)-1H-benzo[d]imidazole-5-carboxamide], the Kd was 524 nM.
Compound `CNC(=O)c1ccc2c(c1)nc(-c1cccc(OC)n1)n2-c1ccc2c(c1)CCC(=O)N2` [Example 23, 2-(6-Methoxypyridin-2-yl)-N-methyl-1-(2-oxo-1,2,3,4-tetrahydroquinolin-6-yl)-1H-benzo[d]imidazole-5-carboxamide] has a Kd of 15 nM.
`O=C1CCc2cc(C(=O)N3CCc4ccccc43)cnc2N1` [Example 58, 6-(Indoline-1-carbonyl)-3,4-dihydro-1H-1,8-naphthyridin-2-one] was tested, and the Kd was 62 nM.
Compound `CC(=O)N1CCC(NC(=O)c2ccc3c(c2)CCC(=O)N3)CC1` [Example 57, N-(1-Acetyl-4-piperidyl)-2-oxo-3,4-dihydro-1H-quinoline-6-carboxamide] has a Kd of 41 nM.
`Cn1cncc1-c1cc(C(=O)Nc2ccc3c(c2)CCC(=O)N3)c2ccccc2n1` [Example 5] showed a Kd of 677 nM.
Work on `O=C1CCc2ccc(-n3ccnc3)cc2N1` [Example 53, 7-(1H-Imidazol-1-yl)-3,4-dihydroquinolin-2(1H)-one] yielded a Kd of 16 nM.
Work on `Cc1sc2c(c1C)C(c1ccc(Cl)cc1)=N[C@@H](CC(=O)NCCCCCCCCCCNC(=O)c1ccc3c(c1)nc(-c1cc(-c4cncn4C)nc4ccccc14)n3-c1ccc3c(c1)CCC(=O)N3)c1nnc(C)n1-2` [Example A, N-(10-(2-((6S)-4-(4-Chlorophenyl)-2,3,9-trimethyl-6H-thieno[3,2-f][1,2,4]triazolo[4,3-a][1,4]diazepin-6-yl)acetamido)decyl)-2-(2-(1-methyl-1H-imidazol-5-yl)quinolin-4-yl)-1-(2-oxo-1,2,3,4-tetrahydroquinolin-6-yl)-1H-benzo[d]imidazole-5-carboxamide] yielded a Kd of 338 nM.
Compound `O=C1CCc2cc(C(=O)N3CCc4cccnc43)cnc2N1` [Example 59, 6-(2,3-Dihydropyrrolo[2,3-b]pyridine-1-carbonyl)-3,4-dihydro-1H-1,8-naphthyridin-2-one] has a Kd of 3 nM.
Compound `CNC(=O)c1ccc2c(c1)nc(CO)n2-c1ccc2c(c1)CCC(=O)N2` [Example 15, 2-(Hydroxymethyl)-N-methyl-1-(2-oxo-1,2,3,4-tetrahydroquinolin-6-yl)-1H-benzo[d]imidazole-5-carboxamide] has a Kd of 11 nM.
For `O=C1CCc2cc(C(=O)N3CCc4cccnc43)ccc2N1` [Example 55, 6-(2,3-Dihydropyrrolo[2,3-b]pyridine-1-carbonyl)-3,4-dihydro-1H-quinolin-2-one], the Kd was 23 nM.
Work on `CC(C)c1nc2ccccc2n1-c1ccc2c(c1)CNC(=O)N2` [Example 61, 6-(2-Isopropyl-1H-benzo[d]imidazol-1-yl)-3,4-dihydroquinazolin-2(1H)-one] yielded a Kd of 171 nM.
